These results are taken from doi:10.1101/2024.01.31.578122v1 (biorxiv, 2024).

In experiment [1] the target is TRIM21 PRYSPRY (PRYSPRY domain of TRIM21) (Homo sapiens, UniProt P19474, D355A). Put plainly: isothermal titration calorimetry. Type of experiment: binding.
The target of experiment [2] is TRIM21 PRYSPRY (PRYSPRY domain of TRIM21) (Homo sapiens, UniProt P19474). Put plainly: microscale thermophoresis, RED-NHS labelled protein. The class given is binding.
Chain of TRIM21 PRYSPRY (PRYSPRY domain of TRIM21) (Homo sapiens, UniProt P19474) (P19474 287-465): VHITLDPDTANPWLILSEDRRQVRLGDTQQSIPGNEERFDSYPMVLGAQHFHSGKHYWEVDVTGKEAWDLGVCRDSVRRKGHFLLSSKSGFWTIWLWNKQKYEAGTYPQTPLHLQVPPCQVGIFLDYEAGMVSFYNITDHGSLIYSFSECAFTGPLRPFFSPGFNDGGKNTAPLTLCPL

Chain of TRIM21 PRYSPRY (PRYSPRY domain of TRIM21) (Homo sapiens, UniProt P19474, D355A) (P19474 287-465 D355A): as the sequence (P19474 287-465) above, with D69A counted along it

In experiment [1], `C[C@@H](O)c1ccc2c(c1)N(CCCN(C)C)c1ccccc1S2` [(R)-ACE-OH] came in with a dissociation constant Kd of 9.11 µM.

With `C[C@H](O)c1ccc2c(c1)N(CCCN(C)C)c1ccccc1S2` [(S)-hydroxyl-acepromazine], the dissociation constant (Kd) in experiment [1] was found to be 17.9 µM; in experiment [2], 237 µM.

Turning to `CC(=O)c1ccc2c(c1)N(CCCN(C)C)c1ccccc1S2` [acepromazine], the figures for the Kd in experiment [1] and in experiment [2] were 5.66 µM and 44.6 µM, respectively.
